Series [1] relates to Puccinia recondita f. Sp. Tritici. The series is described as follows: Fungicidal activity against Puccinia recondita f. sp. tritici / wheat / leaf disc preventative (brown rust). Type of series: in vivo. Conditions: foliar, 200 ppm in the applied formulation, wheat leaf segments cv. Kanzler, inoculated 1 day after application, assessed 7 to 9 days after application, read-out: disease control compared to untreated control leaf disks. The protocol: Leaf disks or leaf segments of various plant species are cut from plants grown in a greenhouse. The cut leaf disks or segments are placed in multiwell plates (24-well format) onto water agar. The leaf disks are sprayed with a test solution before (preventative) or after (curative) inoculation. Compounds to be tested are prepared as DMSO solutions (max. 10 mg/ml) which are diluted to the appropriate concentration with 0.025% Tween20 just before spraying. The inoculated leaf disks or segments are incubated under defined conditions (temperature, relative humidity, light, etc.) according to the respective test system. A single evaluation of disease level is carried out 3 to 14 days after inoculation, depending on the pathosystem. Percent disease control relative to the untreated check leaf disks or segments is then calculated. Wheat leaf segments cv. Kanzler were placed on agar in multiwell plates (24-well format) and sprayed with the formulated test compound diluted in water. The leaf disks were inoculated with a spore suspension of the fungus 1 day after application. The inoculated leaf segments were incubated at 19° C. and 75% relative humidity (rh) under a light regime of 12 hours light/12 hours darkness in a climate cabinet and the activity of a compound was assessed as percent disease control compared to untreated when an appropriate level of disease damage appears in untreated check leaf segments (7 to 9 days after application). The following compounds at 200 ppm in the applied formulation give at least 80% disease control in this test when compared to untreated control leaf disks under the same conditions, which show extensive disease development.

Series [2] has as its system Puccinia recondite f. Sp. Tritici. The series is described as follows: Fungicidal activity against Puccinia recondite f. sp. tritici / wheat / leaf disc curative (brown rust). Type of series: in vivo. Conditions: foliar, 200 ppm in the applied formulation, wheat leaf segments cv. Kanzler, applied 1 day after inoculation, assessed 6 to 8 days after application, read-out: disease control compared to untreated control leaf disks. The method, then: (§1) Leaf disks or leaf segments of various plant species are cut from plants grown in a greenhouse. The cut leaf disks or segments are placed in multiwell plates (24-well format) onto water agar. The leaf disks are sprayed with a test solution before (preventative) or after (curative) inoculation. Compounds to be tested are prepared as DMSO solutions (max. 10 mg/ml) which are diluted to the appropriate concentration with 0.025% Tween20 just before spraying. The inoculated leaf disks or segments are incubated under defined conditions (temperature, relative humidity, light, etc.) according to the respective test system. A single evaluation of disease level is carried out 3 to 14 days after inoculation, depending on the pathosystem. Percent disease control relative to the untreated check leaf disks or segments is then calculated.
Wheat leaf segments cv. Kanzler are placed on agar in multiwell plates (24-well format). The leaf segments are then inoculated with a spore suspension of the fungus. Plates were stored in darkness at 19° C. and 75% relative humidity. The formulated test compound diluted in water was applied 1 day after inoculation. The leaf segments were incubated at 19° C. and 75% relative humidity under a light regime of 12 hours light/12 hours darkness in a climate cabinet and the activity of a compound was assessed as percent disease control compared to untreated when an appropriate level of disease damage appears in untreated check leaf segments (6 to 8 days after application).
(§2) The following compounds at 200 ppm in the applied formulation give at least 80% disease control in this test when compared to untreated control leaf disks under the same conditions, which show extensive disease development.

Series [3] has as its system Glomerella lagenarium (Colletotrichum lagenarium). The series is described as follows: Fungicidal activity against Glomerella lagenarium (Colletotrichum lagenarium) liquid culture / cucumber / preventative (anthracnose). Type of series: cell-based. Conditions: Colletotrichum orbiculare; 20 ppm in the applied formulation; liquid culture in PDB, 24° C.; 3 to 4 days after application; read-out: disease control compared to untreated control (inhibition of growth measured photometrically). The protocol:
Mycelia fragments or conidia suspensions of a fungus prepared either freshly from liquid cultures of the fungus or from cryogenic storage, are directly mixed into nutrient broth. DMSO solutions of the test compound (max. 10 mg/ml) are diluted with 0.025% Tween20 by a factor of 50 and 10 μl of this solution is pipetted into a microtiter plate (96-well format). The nutrient broth containing the fungal spores/mycelia fragments is then added to give an end concentration of the tested compound. The test plates are incubated in the dark at 24° C. and 96% relative humidity. The inhibition of fungal growth is determined photometrically after 2 to 7 days, depending on the pathosystem, and percent antifungal activity relative to the untreated check is calculated.
Conidia of the fungus from cryogenic storage are directly mixed into nutrient broth (PDB—potato dextrose broth). After placing a (DMSO) solution of test compound into a microtiter plate (96-well format), the nutrient broth containing the fungal spores is added. The test plates are incubated at 24° C. and the inhibition of growth is measured photometrically 3 to 4 days after application.
The following compounds at 20 ppm in the applied formulation give at least 80% disease control in this test when compared to untreated control under the same conditions, which show extensive disease development.

In a further series the test system is Phakopsora pachyrhizi. The series is described as follows: Fungicidal activity against Phakopsora pachyrhizi / soybean / leaf disc preventative (Asian soybean rust). Type of series: in vivo. The following applies: foliar, 200 ppm in the applied formulation, soybean leaf disks, inoculated one day after application, assessed 12 to 14 days after application, read-out: disease control compared to untreated control leaf disks. The protocol: as §1
Soybean leaf disks are placed on water agar in multiwell plates (24-well format) and sprayed with the formulated test compound diluted in water. One day after application leaf discs are inoculated by spraying a spore suspension on the lower leaf surface. After an incubation period in a climate cabinet of 24-36 hours in darkness at 20° C. and 75% rh leaf disc are kept at 20° C. with 12 h light/day and 75% rh. The activity of a compound is assessed as percent disease control compared to untreated when an appropriate level of disease damage appears in untreated check leaf disks (12 to 14 days after application).
as §2

A value given as a limit tells only on which side of the number the result lay.

In the case of `O=C(C(=O)N1CCCC1)c1ccc(-c2noc(C(F)(F)F)n2)cc1` [Compound 1.20, 1-pyrrolidin-1-yl-2-[4-[5-(trifluoromethyl)-1,2,4-oxadiazol-3-yl]phenyl]ethane-1,2-dione], the melting point was 104 to 110 °C. Moreover, the pest or weed control at 200 ppm in series [1] is at least 80%. Besides, in series [2], the pest or weed control at 200 ppm was at least 80%. Besides, the inhibition at 20 ppm in series [3] was at least 80%.
`CCN1OCC(NC(=O)C(=O)c2ccc(-c3noc(C(F)(F)F)n3)cc2)C1=O` (stereo not shown) [Compound 1.21, N-(2-ethyl-3-oxo-isoxazolidin-4-yl)-2-oxo-2-[4-[5-(trifluoromethyl)-1,2,4-oxadiazol-3-yl]phenyl]acetamide] gave a melting point of 162 to 165 °C. For the same compound, the pest or weed control at 200 ppm in series [1] is at least 80%. Besides, the pest or weed control at 200 ppm in series [2] was at least 80%. Further, the pest or weed control at 200 ppm in the series on Phakopsora pachyrhizi was at least 80%. Further, in series [3], the inhibition at 20 ppm is at least 80%.
Regarding `COc1cccc(NC(=O)C(=O)c2ccc(-c3noc(C(F)(F)F)n3)cc2)n1` [Compound 1.24, N-(6-methoxy-2-pyridyl)-2-oxo-2-[4-[5-(trifluoromethyl)-1,2,4-oxadiazol-3-yl]phenyl]acetamide], the melting point fell in the range of 118 to 120 °C. Further, the pest or weed control at 200 ppm in series [1] is at least 80%. The pest or weed control at 200 ppm with Phakopsora pachyrhizi was at least 80%. For the same compound, the inhibition at 20 ppm in series [3] is at least 80%.
For `C=CCNC(=O)C(=O)c1ccc(-c2noc(C(F)(F)F)n2)cc1` [Compound 1.25, N-allyl-2-oxo-2-[4-[5-(trifluoromethyl)-1,2,4-oxadiazol-3-yl]phenyl]acetamide], the melting point lay within 71 to 74 °C. In series [1], the pest or weed control at 200 ppm is at least 80%. Moreover, the pest or weed control at 200 ppm in series [2] is at least 80%. The pest or weed control at 200 ppm in the series with Phakopsora pachyrhizi is at least 80%. Further, the inhibition at 20 ppm in series [3] was at least 80%.
The compound `O=C(NCc1ccccc1F)C(=O)c1ccc(-c2noc(C(F)(F)F)n2)cc1` [Compound 1.26, N-[(2-fluorophen-yl)methyl]-2-oxo-2-[4-[5-(trifluoromethyl)-1,2,4-oxadiazol-3-yl]phenyl]acetamide] gave a melting point of 84 to 86 °C. In series [1], the pest or weed control at 200 ppm was at least 80%. The pest or weed control at 200 ppm in series [2] is at least 80%. The inhibition at 20 ppm in series [3] is at least 80%.
Take `O=C(NC1COC1)C(=O)c1ccc(-c2noc(C(F)(F)F)n2)cc1` [Compound 1.27, N-(oxetan-3-yl)-2-oxo-2-[4-[5-(trifluoromethyl)-1,2,4-oxadiazol-3-yl]phenyl]acetamide]: the melting point was in the range of 131 to 136 °C. Moreover, the pest or weed control at 200 ppm in series [1] was at least 80%. Besides, the pest or weed control at 200 ppm in series [2] was at least 80%. In addition, the inhibition at 20 ppm in series [3] is at least 80%.
`O=C(NCCF)C(=O)c1ccc(-c2noc(C(F)(F)F)n2)cc1` [Compound 1.31, N-(2-fluoroethyl)-2-oxo-2-[4-[5-(trifluoromethyl)-1,2,4-oxadiazol-3-yl]phenyl]acetamide] returned a melting point of 94 to 100 °C. In addition, in series [1], the pest or weed control at 200 ppm was at least 80%. For the same compound, the pest or weed control at 200 ppm in series [2] is at least 80%. In addition, in the series with Phakopsora pachyrhizi, the pest or weed control at 200 ppm is at least 80%. Also, the inhibition at 20 ppm in series [3] was at least 80%.
`O=C(NC1CCCC1(F)F)C(=O)c1ccc(-c2noc(C(F)(F)F)n2)cc1` (stereo not shown) [Compound 1.34, N-(2,2-difluoro-cyclopentyl)-2-oxo-2-[4-[5-(trifluoromethyl)-1,2,4-oxadiazol-3-yl]phenyl]acetamide]: the melting point was 64 to 70 °C. For the same compound, in series [1], the pest or weed control at 200 ppm is at least 80%. Further, the pest or weed control at 200 ppm in series [2] is at least 80%. For the same compound, the pest or weed control at 200 ppm in the series on Phakopsora pachyrhizi was at least 80%. In addition, the inhibition at 20 ppm in series [3] was at least 80%.
Compound `O=C(C(=O)N1CCOCC1)c1ccc(-c2noc(C(F)(F)F)n2)cc1` [Compound 1.35, 1-morpholino-2-[4-[5-(trifluoromethyl)-1,2,4-oxadiazol-3-yl]phenyl]ethane-1,2-dione] yielded a melting point of 140 to 144 °C. Besides, the pest or weed control at 200 ppm in series [1] was at least 80%. Besides, in series [2], the pest or weed control at 200 ppm was at least 80%. For the same compound, in series [3], the inhibition at 20 ppm is at least 80%.
Compound `CC(C)(C)OC(=O)NCCNC(=O)C(=O)c1ccc(-c2noc(C(F)(F)F)n2)cc1` [Compound 1.37, tert-butyl N-[2-[[2-oxo-2-[4-[5-(trifluoromethyl)-1,2,4-oxadiazol-3-yl]phenyl]acet-yl]amino]eth-yl]carbamate] showed a melting point of 155 to 156 °C. The pest or weed control at 200 ppm in series [1] is at least 80%. The pest or weed control at 200 ppm with Phakopsora pachyrhizi is at least 80%.
Compound `COC(CNC(=O)C(=O)c1ccc(-c2noc(C(F)(F)F)n2)cc1)OC` [Compound 1.38, N-(2,2-dimethoxyethyl)-2-oxo-2-[4-[5-(trifluoromethyl)-1,2,4-oxadiazol-3-yl]phenyl]acetamide] showed a melting point of 88 to 89 °C. The pest or weed control at 200 ppm in series [1] is at least 80%. In addition, the pest or weed control at 200 ppm in series [2] was at least 80%. Also, in series [3], the inhibition at 20 ppm was at least 80%.
Compound `CCNC(=O)C(=O)c1ccc(-c2noc(C(F)(F)F)n2)cc1` [Compound 1.39, N-ethyl-2-oxo-2-[4-[5-(trifluoromethyl)-1,2,4-oxadiazol-3-yl]phenyl]acetamide] yielded a melting point of 105 to 110 °C. In addition, the pest or weed control at 200 ppm in series [1] is at least 80%. The pest or weed control at 200 ppm in series [2] is at least 80%. Moreover, the pest or weed control at 200 ppm in the series on Phakopsora pachyrhizi was at least 80%. Moreover, the inhibition at 20 ppm in series [3] was at least 80%.
Consider `C#CCNC(=O)C(=O)c1ccc(-c2noc(C(F)(F)F)n2)cc1` [Compound 1.41, 2-oxo-N-prop-2-ynyl-2-[4-[5-(trifluoromethyl)-1,2,4-oxadiazol-3-yl]phenyl]acetamide], for which the melting point lay in the range of 79 to 84 °C. Besides, the pest or weed control at 200 ppm in series [1] was at least 80%. Moreover, the pest or weed control at 200 ppm in series [2] is at least 80%. The pest or weed control at 200 ppm with Phakopsora pachyrhizi was at least 80%. Further, in series [3], the inhibition at 20 ppm is at least 80%.
Turning to `CCCNC(=O)C(=O)c1ccc(-c2noc(C(F)(F)F)n2)cc1` [Compound 1.42, 2-oxo-N-propyl-2-[4-[5-(trifluoromethyl)-1,2,4-oxadiazol-3-yl]phenyl]acetamide], the pest or weed control at 200 ppm (in series [1]; in series [2]; with Phakopsora pachyrhizi) was at least 80% in each case. For the same compound, in series [3], the inhibition at 20 ppm is at least 80%.
